Test results as given in PubChem BioAssay (NCI).
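Interpolation was linear, between the two tested concentrations surrounding the appropriate level; five concentrations were tested over 48 hours in 96-well plates. GI50: concentration for 50% inhibition of growth. TGI marks complete inhibition of growth.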

What was measured:
Assay in all cases: NCI anticancer screen, dose series, 48 h
SK-MEL-5 melanoma = system: SK-MEL-5 melanoma
OVCAR-4 ovarian = system: OVCAR-4 ovarian
HT29 colon = system: HT29 colon
HS 578T breast = system: HS 578T breast
RPMI-8226 leukemia = system: RPMI-8226 leukemia
UO-31 renal = system: UO-31 renal
SF-539 CNS = system: SF-539 CNS
LOX IMVI melanoma = system: LOX IMVI melanoma
K-562 leukemia = system: K-562 leukemia
NCI-H522 lung = system: NCI-H522 lung
SF-295 CNS = system: SF-295 CNS
HOP-62 NSCLC = system: HOP-62 NSCLC
CAKI-1 renal = system: CAKI-1 renal
U251 CNS = system: U251 CNS
HCT-116 colon = system: HCT-116 colon
OVCAR-5 ovarian = system: OVCAR-5 ovarian
ACHN renal = system: ACHN renal
SW-620 colon = system: SW-620 colon
M14 melanoma = system: M14 melanoma
BT-549 breast = system: BT-549 breast
OVCAR-8 ovarian = system: OVCAR-8 ovarian
IGROV1 ovarian = system: IGROV1 ovarian
NCI-H460 lung = system: NCI-H460 lung
MCF7 breast = system: MCF7 breast
T-47D breast = system: T-47D breast
EKVX NSCLC = system: EKVX NSCLC
786-0 renal = system: 786-0 renal
SK-OV-3 ovarian = system: SK-OV-3 ovarian
OVCAR-3 ovarian = system: OVCAR-3 ovarian
SNB-75 CNS = system: SNB-75 CNS
NCI/ADR-RES ovarian = system: NCI/ADR-RES ovarian
SF-268 CNS = system: SF-268 CNS
SK-MEL-2 melanoma = system: SK-MEL-2 melanoma
HL-60(TB) leukemia = system: HL-60(TB) leukemia
SR leukemia = system: SR leukemia
MDA-MB-435 = system: MDA-MB-435
MOLT-4 leukemia = system: MOLT-4 leukemia
KM12 colon = system: KM12 colon
PC-3 prostate = system: PC-3 prostate
NCI-H226 lung = system: NCI-H226 lung
UACC-62 melanoma = system: UACC-62 melanoma
A498 renal = system: A498 renal
SN12C renal = system: SN12C renal
CCRF-CEM leukemia = system: CCRF-CEM leukemia
HCT-15 colon = system: HCT-15 colon
HOP-92 NSCLC = system: HOP-92 NSCLC
UACC-257 melanoma = system: UACC-257 melanoma
NCI-H23 lung = system: NCI-H23 lung
COLO 205 colon = system: COLO 205 colon
TK-10 renal = system: TK-10 renal
DU-145 prostate = system: DU-145 prostate
MALME-3M melanoma = system: MALME-3M melanoma
MDA-MB-231 breast = system: MDA-MB-231 breast
SNB-19 CNS = system: SNB-19 CNS
A549 NSCLC = system: A549 NSCLC
RXF 393 renal = system: RXF 393 renal
SK-MEL-28 melanoma = system: SK-MEL-28 melanoma
HCC-2998 colon = system: HCC-2998 colon

Cn1c2c(c3c(=O)[nH]ncc31)CCCc1ccccc1-2
TGI (SK-MEL-5 melanoma): 30.5 µM
TGI (OVCAR-4 ovarian): > 100 µM
TGI (HT29 colon): > 100 µM
TGI (HS 578T breast): > 100 µM
TGI (RPMI-8226 leukemia): 40.2 µM
TGI (UO-31 renal): 53.1 µM
TGI (SF-539 CNS): > 100 µM
TGI (LOX IMVI melanoma): 46.1 µM
TGI (K-562 leukemia): > 100 µM
TGI (NCI-H522 lung): 38.3 µM
TGI (SF-295 CNS): > 100 µM
TGI (HOP-62 NSCLC): > 100 µM
TGI (CAKI-1 renal): 69.9 µM
TGI (U251 CNS): 92.1 µM
TGI (HCT-116 colon): > 100 µM
TGI (OVCAR-5 ovarian): > 100 µM
TGI (ACHN renal): 98.9 µM
TGI (SW-620 colon): > 100 µM
TGI (M14 melanoma): > 100 µM
TGI (BT-549 breast): > 100 µM
TGI (OVCAR-8 ovarian): 83.5 µM
TGI (IGROV1 ovarian): 61.6 µM
TGI (NCI-H460 lung): 67.7 µM
TGI (MCF7 breast): 53 µM
TGI (T-47D breast): > 100 µM
TGI (EKVX NSCLC): > 100 µM
TGI (786-0 renal): > 100 µM
TGI (SK-OV-3 ovarian): 64 µM
TGI (OVCAR-3 ovarian): 86.4 µM
TGI (SNB-75 CNS): > 100 µM
TGI (NCI/ADR-RES ovarian): > 100 µM
TGI (SF-268 CNS): 98.8 µM
TGI (SK-MEL-2 melanoma): 40.2 µM
TGI (HL-60(TB) leukemia): 16.3 µM
TGI (SR leukemia): 51.8 µM
TGI (MDA-MB-435): 50.4 µM
TGI (MOLT-4 leukemia): 21.6 µM
TGI (KM12 colon): > 100 µM
TGI (PC-3 prostate): > 100 µM
TGI (NCI-H226 lung): 86 µM
TGI (UACC-62 melanoma): > 100 µM
TGI (A498 renal): 57.3 µM
TGI (SN12C renal): 66.3 µM
TGI (CCRF-CEM leukemia): > 100 µM
TGI (HCT-15 colon): > 100 µM
TGI (HOP-92 NSCLC): 41.3 µM
TGI (UACC-257 melanoma): > 100 µM
TGI (NCI-H23 lung): > 100 µM
TGI (COLO 205 colon): 34.5 µM
TGI (TK-10 renal): > 100 µM
TGI (DU-145 prostate): > 100 µM
TGI (MALME-3M melanoma): 60.7 µM
TGI (MDA-MB-231 breast): > 100 µM
TGI (SNB-19 CNS): > 100 µM
TGI (A549 NSCLC): > 100 µM

COc1cc(OC)c2c(c1Cl)O[C@]1(C2=O)C(OCc2ccccc2)=CC(=O)C[C@H]1C
GI50 (SK-MEL-5 melanoma): 1.15 µM
TGI (SK-MEL-5 melanoma): 11.8 µM
GI50 (OVCAR-4 ovarian): 7.16 µM
TGI (OVCAR-4 ovarian): 73.3 µM
GI50 (HT29 colon): 0.534 µM
TGI (HT29 colon): 15.8 µM
GI50 (HS 578T breast): 3.17 µM
TGI (HS 578T breast): 32.5 µM
GI50 (RPMI-8226 leukemia): 1.13 µM
TGI (RPMI-8226 leukemia): 17 µM
GI50 (RXF 393 renal): 0.899 µM
TGI (RXF 393 renal): 29.1 µM
GI50 (UO-31 renal): 2.51 µM
TGI (UO-31 renal): 61.2 µM
GI50 (SF-539 CNS): 0.884 µM
TGI (SF-539 CNS): 9.28 µM
GI50 (SK-MEL-28 melanoma): 1.85 µM
TGI (SK-MEL-28 melanoma): 24.8 µM
GI50 (K-562 leukemia): 0.538 µM
TGI (K-562 leukemia): 29.1 µM
GI50 (NCI-H522 lung): 0.694 µM
TGI (NCI-H522 lung): 4.66 µM
GI50 (SF-295 CNS): 0.492 µM
TGI (SF-295 CNS): 5.59 µM
GI50 (HCC-2998 colon): 1.49 µM
TGI (HCC-2998 colon): 7.03 µM
GI50 (HOP-62 NSCLC): 1.36 µM
TGI (HOP-62 NSCLC): 62.2 µM
GI50 (CAKI-1 renal): 0.656 µM
TGI (CAKI-1 renal): 60.6 µM
GI50 (HCT-116 colon): 0.46 µM
TGI (HCT-116 colon): > 100 µM
GI50 (OVCAR-5 ovarian): 1.83 µM
TGI (OVCAR-5 ovarian): > 100 µM
GI50 (ACHN renal): 0.785 µM
TGI (ACHN renal): > 100 µM
GI50 (SW-620 colon): 0.641 µM
TGI (SW-620 colon): > 100 µM
GI50 (M14 melanoma): 0.612 µM
TGI (M14 melanoma): 40.5 µM
GI50 (BT-549 breast): 2.28 µM
TGI (BT-549 breast): 21.1 µM
GI50 (OVCAR-8 ovarian): 1.02 µM
TGI (OVCAR-8 ovarian): 29.4 µM
GI50 (IGROV1 ovarian): 2.79 µM
TGI (IGROV1 ovarian): 79.6 µM
GI50 (NCI-H460 lung): 0.401 µM
TGI (NCI-H460 lung): 12.6 µM
GI50 (MCF7 breast): 0.395 µM
TGI (MCF7 breast): 25.9 µM
GI50 (T-47D breast): 0.792 µM
TGI (T-47D breast): 67.8 µM
GI50 (786-0 renal): 0.944 µM
TGI (786-0 renal): 79.7 µM
GI50 (SK-OV-3 ovarian): 1.29 µM
TGI (SK-OV-3 ovarian): 7.75 µM
GI50 (OVCAR-3 ovarian): 0.986 µM
TGI (OVCAR-3 ovarian): 11.4 µM
GI50 (SNB-75 CNS): 0.936 µM
TGI (SNB-75 CNS): 27.4 µM
GI50 (NCI/ADR-RES ovarian): 0.584 µM
TGI (NCI/ADR-RES ovarian): 3.72 µM
GI50 (SF-268 CNS): 1.82 µM
TGI (SF-268 CNS): 53.8 µM
GI50 (HL-60(TB) leukemia): 0.531 µM
TGI (HL-60(TB) leukemia): 3.52 µM
GI50 (SR leukemia): 0.331 µM
TGI (SR leukemia): 10.8 µM
GI50 (MDA-MB-435): 0.23 µM
TGI (MDA-MB-435): 0.549 µM
GI50 (MOLT-4 leukemia): 0.826 µM
TGI (MOLT-4 leukemia): 8.79 µM
GI50 (KM12 colon): 0.596 µM
TGI (KM12 colon): > 100 µM
GI50 (PC-3 prostate): 1.6 µM
TGI (PC-3 prostate): 63.3 µM
GI50 (NCI-H226 lung): 4.18 µM
TGI (NCI-H226 lung): 30.2 µM
GI50 (UACC-62 melanoma): 0.72 µM
TGI (UACC-62 melanoma): 18.6 µM
GI50 (A498 renal): 0.413 µM
TGI (A498 renal): 5.58 µM
GI50 (SN12C renal): 0.833 µM
TGI (SN12C renal): 14 µM
GI50 (CCRF-CEM leukemia): 0.532 µM
TGI (CCRF-CEM leukemia): 12.2 µM
GI50 (HCT-15 colon): 0.487 µM
TGI (HCT-15 colon): > 100 µM
GI50 (UACC-257 melanoma): 1.76 µM
TGI (UACC-257 melanoma): 49.2 µM
GI50 (NCI-H23 lung): 1.02 µM
TGI (NCI-H23 lung): 39.5 µM
GI50 (COLO 205 colon): 0.43 µM
TGI (COLO 205 colon): 1.69 µM
GI50 (TK-10 renal): 4.34 µM
TGI (TK-10 renal): 63.2 µM
GI50 (DU-145 prostate): 0.485 µM
TGI (DU-145 prostate): 5.63 µM
GI50 (MALME-3M melanoma): 12 µM
TGI (MALME-3M melanoma): 55.8 µM
GI50 (MDA-MB-231 breast): 1.22 µM
TGI (MDA-MB-231 breast): 5.02 µM
GI50 (SNB-19 CNS): 5.68 µM
TGI (SNB-19 CNS): 98.8 µM
GI50 (A549 NSCLC): 0.769 µM
TGI (A549 NSCLC): > 100 µM
